Data set [1] is described as follows: Brain to plasma ratio in female FVB mice. In kind it is in vivo. As to conditions: 100 mpk dose.
For data set [2], the system named is Madin-Darby Canine Kidney (MDCK) cells. In words: In vitro permeability across MDCK cell monolayer. Particulars: test compound 5 μM, 2 h at 37° C., apical to basolateral. The data set is classed as in vitro ADME. As for the experimental part: (§1) Compounds were evaluated for permeability across a monolayer of Madin-Darby Canine Kidney (MDCK) cells in a transwell device following culturing for 4 days. […] A 0.5 mL of cell suspension (400,000 cells/mL) was placed on membrane and a 1.5 mL media in the bottom wells on day 1. On day 2 and day 3, cells were fed with new media. […] Media was removed from upper chambers and filled with mHBSS with or without CspA, and incubated 30 min at 37° C. with light shaking. Donor chambers were emptied, and filled with test compound at 5 μM in mHBSS. […] Plates were incubated for 2 h at 37° C. with shaking. After 2 h, both the donor and receiver wells were sampled. The bottom chambers were read in a fluorometer to assess LY leakage, and then the media from all wells were assayed by LC/MS/MS to determine compound levels.

Data set [3] can be described thus: In vitro permeability across MDCK cell monolayer. In kind it is in vitro ADME, Canine. Particulars: dog, MDCK, test compound 5 μM, 2 h at 37° C., apical to basolateral, read-out: Permeability Forward A > B. As for the experimental part:
as §1

The next data set concerns P-gp. As to conditions: mdr1 a/b (-/-) and FVB wild-type, mouse, not told, iv, 2.5 mg/kg, 5 min. How it is done: Use of mdr1 (−/−) mouse and its FVB wild-type littermates, which expresses P-gp at their blood-brain barrier (BBB), can distinguish between a test compound of high P-gp liability from one with a more desirable low P-gp liability.
Test compounds are administered to both the mdr1 a/b (−/−) and the FVB wild-type mice (N=4/strain) intravenously at 2.5 mg/Kg through the tail vein. Plasma and brains are harvested at 5 min post administration. Test compound is extracted from tissue in parallel with calibration curves prepared from age-matched control tissues, then quantitated by LC/MS/MS. The ratio of brain concentration (Cb) to plasma concentration (Cp) is used as a measure of brain penetration according to the following formula: Brain Penetration (P)=Cb/Cp Therefore, a measure of brain penetration in the mdr1 (−/−) mouse relative to that of the wild-type animal represents an assessment of in vivo P-gp efflux, which is analogous to that determine in vitro with MDR1-MDCK cells. Calculations are made according to the following formula: Pmdr1/PFVB=In vivo Efflux

These results are taken from patent US20070149525A1, “Methods of treating amyloidosis using aryl-cyclopropyl derivative aspartyl protease inhibitors” (priority 2005, published 2007).

“And” between values parts separate entries of the source, which are not always exact repeats. Equal entries are not always repeated.

On to `CC(=O)NC(Cc1cc(F)cc(F)c1)C(O)CNC1(c2cccc(C(C)(C)C(F)F)c2)CC1` (centres unmarked) [23.57], for which the “Brain AUC (0-6 h)” value in data set [1] amounted to 57 µM·h. Further, in data set [1] (mouse, brain and plasma, 100 mg/kg, AUC (0-6 h)), the Kp (in general, tissue or fluid exposure divided by exposure in the circulation) came out at 0.7. In addition, in data set [1] (mouse, plasma, 100 mg/kg, read-out: Plasma AUC (0-6 h)), the AUC(0-t) came out at 86 µM·h.
In the case of `CC(=O)NC(Cc1cc(F)cc(F)c1)C(O)CNC1(c2cccc(-n3cccn3)c2)CC1C(C)C` (centres unmarked) [Example 23.54, N-(4-(1-(3-(1H-pyrazol-1-yl)phenyl)-2-isopropylcyclopropylamino)-1-(3,5-difluorophenyl)-3-hydroxybutan-2-yl)acetamide], in data set [2], the “Permeability Forward A > B” value is reported as 148 nm/s. The Papp A→B at 2 h, 5 μM in data set [3] was 11.4 ×10⁻⁶ cm/s.
Turning to `CCC1CC1(NCC(O)C(Cc1cc(F)cc(F)c1)NC(C)=O)c1cccc(-n2cccn2)c1` (centres unmarked) [Example 23.55, N-(4-(1-(3-(1H-pyrazol-1-yl)phenyl)-2-ethylcyclopropylamino)-1-(3,5-difluorophenyl)-3-hydroxybutan-2-yl)acetamide], the “Permeability Forward A > B” value in data set [2] was 141 nm/s and 92 nm/s. Besides, in data set [3], the Papp A→B at 2 h, 5 μM was determined as 18.4 ×10⁻⁶ cm/s.
Regarding `CNCC[C@@H](Oc1ccccc1C)c1ccccc1` [atomoxetine], in the data set on P-gp, the “in vivo P-gp efflux (Pmdr1/PFVB)” value is on record as 1.17.
